{"source": "patent EP2548555A1", "about": "“Proton pump inhibitors as immunomodulators” (Fondazione IRCCS Istituto Nazionale dei Tumori, priority 2011, dated 2013)", "key": {"[1]": {"tested_on": "B16-OVA melanoma cells", "test": "Tumor extracellular pH (pHe) by magnetic resonance spectroscopy (MRS)", "format": "in vivo, mice", "conditions": "esomeprazole 12.5 mg/kg i.p.; reached within 60 min; baseline approximately 6.5"}, "[2]": {"tested_on": "B16-OVA melanoma", "test": "Flow cytometry of tumor-infiltrating leukocytes after DC-OVA257-264 vaccination", "format": "in vivo, mice", "conditions": "7-day-old melanomas, DC-OVA257-264 vaccine, PPI i.p. on day 3 post vaccine, analysed after 24h; vs PBS"}, "[3]": {"tested_on": "B16-OVA cells", "test": "TIL effector function (intracellular IFNγ) after infusion of activated CFSE-labelled OTI cells", "format": "in vivo, mice"}, "[4]": {"tested_on": "B16-OVA cells", "test": "Functional avidity of tumor CD8+ T cells in the active immunotherapy model (naïve OTI transfer, DC-OVA257-264 vaccine)", "format": "in vivo, mice", "conditions": "PPI i.p. at day 11, sacrificed 1 day later; vs PBS"}, "[5]": {"test": "Dosing experiments for tolerated dose", "set-up": "species or system mice", "conditions": "mouse, in vivo; dosing experiments ranging from 1.25-600 mg/kg; read-out: highest tolerated dose"}, "[6]": {"tested_on": "B16-OVA", "test": "Survival with adoptive immunotherapy (activated OTI cells) combined with PPI", "format": "in vivo, mice"}, "[7]": {"tested_on": "B16 melanoma", "test": "Survival of mice bearing B16 melanoma not expressing OVA (OTI control; TBI plus TRP-2-sensitized splenocytes)", "format": "in vivo"}, "[8]": {"tested_on": "transgenic adenocarcinoma of the mouse prostate (TRAMP)", "test": "IFN-γ production of prostate-infiltrating tumor-specific T cells after HSCT, DLI and DC-Tag-IV vaccination", "format": "in vivo, mice", "conditions": "PPI i.p. 3 days after DC-Tag-IV vaccine, killed after 24 h; vs PBS"}, "[9]": {"tested_on": "Primary human monocytes from HD PBMC", "format": "cell-based"}, "[10]": {"tested_on": "STAT6", "test": "pSTAT evaluation in primary monocytes, IL13 stimulation", "format": "cell-based, human", "conditions": "pre-treated 3 hours, in response to IL13 (30 min)"}, "[11]": {"tested_on": "STAT3", "test": "pSTAT evaluation in primary monocytes, IL6 stimulation", "format": "cell-based, human", "conditions": "pre-treated 3 hours, in response to IL6 (30 min)"}, "[12]": {"tested_on": "STAT1", "test": "pSTAT evaluation in primary monocytes, IFNa stimulation", "format": "cell-based, human", "conditions": "pre-treated 3 hours, in response to IFNa (30 min)"}, "[13]": {"tested_on": "MDSC in peripheral blood", "test": "Peripheral blood cell frequencies in advanced melanoma patients on high dose esomeprazole", "format": "in vivo", "conditions": "esomeprazole 120mg/day for 3 days", "experimental": "(§1) We also tested the effect of PPI in advanced melanoma patients receiving high dose esomeprazole (120mg/day for 3 days) in the context of a clinical trial testing the ability of PPI pretreatment to sensitized patients to chemotherapy (CISPLATIN)."}, "[14]": {"tested_on": "circulating monocytes", "test": "Ex-vivo cytokine secretion by circulating monocytes of treated patients", "format": "in vivo, advanced melanoma patients", "conditions": "after 3 days of high dose PPI treatment", "experimental": "as §1"}, "[15]": {"tested_on": "STAT3", "test": "STAT3 phosphorylation state in circulating monocytes of treated patients", "format": "in vivo, advanced melanoma patients", "conditions": "with respect to cells obtained prior to PPI administration", "experimental": "as §1"}, "[16]": {"tested_on": "STAT6", "test": "STAT6 phosphorylation state in circulating monocytes of treated patients", "format": "in vivo, advanced melanoma patients", "conditions": "with respect to cells obtained prior to PPI administration", "experimental": "as §1"}, "[17]": {"tested_on": "allogenic HLA-matched melanoma cells", "conditions": "PPI + chemotherapy (CISPLATIN) vs chemotherapy alone", "experimental": "as §1"}}, "data": [{"smiles": "COc1ccc2nc([S@@+]([O-])Cc3ncc(C)c(OC)c3C)[nH]c2c1", "note": "[esomeprazole]", "values": [{"measurement": "tumor pHe", "setting": "[1]", "result": 7.0}, {"measurement": "inflammatory infiltrate of the tumor mass", "setting": "[2]", "result": "did not substantially modify"}, {"measurement": "frequency of CFSE+ OT-1 cells", "setting": "[3]; 12-day-old melanoma, PPI 24h after OTI infusion, sacrificed 1 day later, vs PBS", "result": "comparable"}, {"measurement": "percentage of CD44+CD8+IFNY+ T cells in tumor-derived CFSE+ T cells", "setting": "[3]; 12-day-old melanoma, PPI 24h after OTI infusion, vs PBS", "result": "significantly enhanced"}, {"measurement": "IFNY production by CD8+CD44+ T cells isolated from the spleen, lung and kidney", "setting": "[3]; CFSE+ and CFSE- subsets, PPI- vs PBS-treated groups", "result": "did not differ"}, {"measurement": "IFNY production in CFSE- TILs", "setting": "[3]; endogenous T cells, PPI-treated vs PBS-treated mice", "result": "higher IFNY production"}, {"measurement": "increase in ability of magnetic bead sorted CD8+ T cells to recognize OVA257-264", "setting": "[4]", "result": "by at least one log"}, {"measurement": "MTD", "setting": "[5]", "result": 12.5, "unit": "mg/kg"}, {"measurement": "animal survival", "setting": "[6]; 8-day melanoma, combined treatment with PPI (12.5 mg/kg) and OTI cells, relative to PBS alone", "result": "doubling in the overall survival rate"}, {"measurement": "tumor growth inhibition", "setting": "[6]; PPI administered before OTI adoptive transfer", "result": "equal tumor growth inhibition"}, {"measurement": "survival of mice with B16 melanomas not expressing OVA", "setting": "[7]; OTI cells and PPI treatment", "result": "did not impact"}, {"measurement": "Survival", "setting": "[7]; TBI 600 Rad, TRP-2-sensitized splenocytes plus PPI vs single adoptive transfer of splenocytes only", "result": "significantly prolonged"}, {"measurement": "population of TIL specifically reacting against the tumor antigen (CD44+IFN-γ+ within CD8+)", "setting": "[8]", "result": "markedly increased"}, {"measurement": "release of cytokines/chemokines such as IL-8, GRO and MCD", "setting": "[9]; PPI pretreatment, data not shown", "result": "did not affect"}, {"measurement": "cytokine/chemokine secretion", "setting": "[9]; esomeprazole 100 µg/ml pre-treatment 3 hours, then mel-EXO 100 µg for 24 hours", "result": "significantly reduced"}, {"measurement": "STAT6 phosphorylation", "setting": "[10]", "result": "inhibit"}, {"measurement": "STAT3 phosphorylation", "setting": "[11]", "result": "inhibit"}, {"measurement": "STAT1 phosphorylation", "setting": "[12]", "result": "inhibit"}, {"measurement": "frequency of MDSC in peripheral blood", "setting": "[13]", "result": "significantly and rapidly decreases"}, {"measurement": "total CD14+, CD3+, CD4+, CD19+ cells or granulocytes in peripheral blood", "setting": "[13]", "result": "no change"}, {"measurement": "ex-vivo secretion of VEGF-A", "setting": "[14]; before treatment 120±100", "result": "104±58"}, {"measurement": "ex-vivo secretion of TGFβ", "setting": "[14]; before treatment 1809±900", "result": "1502 ± 755", "unit": "pg/mL"}, {"measurement": "reduction in STAT3 phosphorylation state", "setting": "[15]", "result": 20, "unit": "%"}, {"measurement": "reduction in STAT6 phosphorylation state", "setting": "[16]", "result": 15, "unit": "%"}, {"measurement": "tumor immunity in peripheral blood", "setting": "[17]", "result": "significant increase"}]}]}
